From patent publication EP4793276A1, “DRUG FOR DIAGNOSING DIABETIC NEPHROPATHY AND USE THEREOF” (Fudan University, priority 2023, dated 2025)

Key:
[1] = test system: db/db model mice; experiment: SPECT in vivo imaging; details: 11.1 MBq via the tail vein, acquisition up to 2 hours, FIG.3
Procedure: SPECT scans were performed using the nanoScan SPECT/CT scanner (Mediso Medical Imaging Systems, Hungary). […] Immediately afterward, the radiation signal was acquired in three-dimensional mode every 30 minutes for up to 2 hours. The energy window is set to 360-700 keV. After completing the SPECT scan, mice were injected with iodofol (Optiray 350; Guerbet) via the tail vein at a dose of 5 µL/g body weight, followed immediately by a 30-second CT scan (X-ray source: 50 kV/980 µA, 480 projections; mice were anesthetized with 1.5% (v/v) isoflurane during both the SPECT and CT scans).

[2] = test system: db/db model mice; experiment: PET in vivo imaging; details: 15 MBq intravenous, 90 minutes acquisition, FIG.3
Procedure: PET scans were performed using an Inveon scanner (Siemens Medical Solutions Knoxville, TN, USA). Mice (m/m and db/db mice) were anesthetized with 1.5% (v/v) isoflurane and then fixed in the center of the FOV of a PET scanner. Immediately after intravenous injection of ^18F-KIDJI-004 (15 MBq), 90 minutes of radiation signals were acquired in three-dimensional mode. The energy window is 350-750 keV. After the PET scan was completed, mice were intravenously injected with iodofol (35%) (Optiray 350; Guerbet) at a dose of 5 µL/g body weight, followed immediately by a 30-second CT scan (X-ray source: 70 kV/88 mA, FOV: 60 mm). Mice were anesthetized with 1.5% (v/v) isoflurane during PET and CT scans.

[3] = test system: diabetic nephropathy mice; experiment: Ex vivo autoradiography of kidneys after tail vein injection; details: mouse
From the text: The spontaneous type 2 diabetes mice model was developed using the db/db homozygous mice (BKS.Cg-Dock7m+/+LeprdbJ; JAX® Mice Strain Code 607) discovered by the Jackson Laboratory in the United States. […] Their pathogenesis is very similar to that of subjects with type 2 diabetes. The control group mice were either normal mice (m/m) or heterozygous mice (m/db).
Sixty minutes later, the mice were euthanized by dislocation, and their kidneys were removed and rapidly frozen in dry ice. 20 µm frozen sections were prepared using a cryostat (Reward, RWD Minux FS800). Frozen sections were held in contact with the developing plate (FUJIFILM; BAS-IP SR 2025E) for 2 hours, and images were read and quantitatively analyzed using an autoradiography scanner (CR-35 Bio; Elysia-Raytest).

Row | SMILES | accumulation in the kidneys of normal mice [1] | accumulation in the renal pelvis of the kidneys of db/db model mice [1] | accumulation in the kidneys of normal mice [2] | accumulation in the renal pelvis of the kidneys of db/db model mice [2] | accumulation in the renal pelvis of diabetic nephropathy mice [3]
1 | O=C(c1ccc([131I])cc1)N1CCc2c(nnn2-c2ncccn2)C1 [^131I-KIDJI-007, (4-iodophenyl)(1-(pyrimidin-2-yl)-1,4,6,7-tetrahydro-5H-[1,2,3]triazolo[4,5-c]pyridin-5-yl) methyl ketone] | no significant accumulation | significantly accumulated | – | – | –
2 | COc1ccc(C(=O)N2CCc3c(nnn3-c3ncccn3)C2)cc1[131I] [^131I-KIDJI-008, (3-iodo-4-methoxyphenyl)(1-(pyrimidin-2-yl)-1,4,6,7-tetrahydro-5H-[1,2,3]triazolo[4,5-c]pyridin-5-yl) methyl ketone] | no significant accumulation | significantly accumulated | – | – | –
3 | O=C(c1ccc([N+](=O)[O-])cc1[131I])N1CCc2c(nnn2-c2ncccn2)C1 [^131I-KIDJI-009, (2-iodo-4-nitro)(1-(pyrimidin-2-yl)-1,4,6,7-tetrahydro-5H-[1,2,3]triazolo[4,5-c]pyridin-5-yl) methyl ketone] | no significant accumulation | significantly accumulated | – | – | –
4 | O=C(c1ccc([131I])cc1F)N1CCc2c(nnn2-c2ncccn2)C1 [^131I-KIDJI-010, (2-fluoro-4-iodophenyl)(1-(pyrimidin-2-yl)-1,4,6,7-tetrahydro-5H-[1,2,3]triazolo[4,5-c]pyridin-5-yl) methyl ketone] | no significant accumulation | significantly accumulated | – | – | –
5 | Cc1cc(C(=O)N2Cc3nnn(-c4ncccn4)c3C[C@@H]2C)cc([18F])n1 [^18F-KIDJI-004, (S)-(2-fluoro-6-methylpyridin-4-yl)(6-methyl-1-(pyrimidin-2-yl)-1,4,6,7-tetrahydro-5H-[1,2,3]triazolo[4,5-c]pyridin-5-yl) methyl ketone] | – | – | no significant accumulation | significantly accumulated | –
6 | C[C@H]1Cc2c(nnn2-c2ncccn2)CN1C(=O)c1ccnc(C(F)(F)F)c1[18F] [^18F-KIDJI-003, (S)-(3-fluoro-2-(trifluoromethyl)pyridin-4-yl)(6-methyl-1-(pyrimidin-2-yl)-1,4,6,7-tetrahydro-5H-[1,2,3]triazolo[4,5-c]pyridin-5-yl) methyl ketone] | – | – | – | – | significant accumulation
